Usually IC50 stands for the concentration at which inhibition is half-maximal.

The target of test [1] is Aldo-keto reductase family 1 member B1 (Bos taurus, UniProt P16116). Nature of the test: Inhibition of bovine lens ALR2 using D,L-glyceraldehyde as substrate measured for 4 mins by spectrophotometric method.
The target in test [2] is Aldo-keto reductase family 1 member B1 (Rattus norvegicus, UniProt P07943). Nature of the test: Inhibition of Sprague-Dawley rat lens ALR2 using D,L-glyceraldehyde as substrate preincubated for 10 mins followed by substrate addition measured for 5 mins by spectrophotometric method.
For test [3], the target named is Aldo-keto reductase family 1 member A1 (Rattus norvegicus, UniProt P51635). Nature of the test: Inhibition of Sprague-Dawley rat kidney ALR1 using sodium D-glucuronate as substrate by spectrophotometric method.
Chain of Aldo-keto reductase family 1 member A1 (P51635 whole entry, looked up): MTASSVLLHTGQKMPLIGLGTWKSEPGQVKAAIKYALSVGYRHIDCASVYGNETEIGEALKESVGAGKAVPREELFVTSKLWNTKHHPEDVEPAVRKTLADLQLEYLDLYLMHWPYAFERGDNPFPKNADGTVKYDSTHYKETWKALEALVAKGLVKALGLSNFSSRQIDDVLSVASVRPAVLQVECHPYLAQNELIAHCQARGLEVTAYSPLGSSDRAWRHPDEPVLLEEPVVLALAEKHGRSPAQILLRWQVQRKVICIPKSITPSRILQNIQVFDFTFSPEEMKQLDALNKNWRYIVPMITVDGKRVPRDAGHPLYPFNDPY

SMILES strings stand for the structures. Some results are limits rather than exact numbers.

`COc1ccc(C(=O)N(CC(=O)O)OCc2ccccc2)cc1` had an IC50 in test [1] of 3.5 µM. As to `CC(C(=O)O)N(OCc1ccc(Cl)cc1)C(=O)c1ccccc1` (stereo not drawn), the IC50 was 2.69 µM in test [2] and above 100 µM in test [3]. `COc1ccc(C(=O)N(OCc2ccccc2Cl)C(C)C(=O)O)cc1` (stereo not drawn): the IC50 was 2.38 µM in test [2] and above 100 µM in test [3]. For `COc1ccc(C(=O)N(OCc2ccccc2)C(C)C(=O)O)cc1` (stereo not drawn), the 50% inhibitory concentration (IC50) in test [2] and in test [3] was above 100 µM each time. For `COc1ccc(C(=O)N(OCc2ccc(Cl)cc2)C(C)C(=O)O)cc1` (stereo not drawn), the concentration for half-maximal inhibition (IC50) in test [2] was 10.1 µM; in test [3], above 100 µM. `COc1ccc(C(=O)N(CC(=O)O)OCc2ccc(Cl)cc2)cc1` had an IC50 in test [1] of 6.3 µM. As to `CC(C(=O)O)N(OCc1ccccc1Cl)C(=O)c1ccccc1` (stereo not drawn), the IC50 in test [2] was 4.88 µM; in test [3], above 100 µM. Take `CC(C(=O)O)N(OCc1ccccc1)C(=O)c1ccccc1` (stereo not drawn): the 50% inhibitory concentration (IC50) is 46.7 µM in test [2] and above 100 µM in test [3]. With `COc1ccc(C(=O)N(OCc2cccc(Cl)c2)C(C)C(=O)O)cc1` (stereo not drawn), the IC50 in test [2] and in test [3] was above 100 µM throughout.

Take `CC(C(=O)O)N(OCc1cccc(Cl)c1)C(=O)c1ccccc1` (stereo not drawn): the IC50 in test [2] was 12.5 µM; in test [3], above 100 µM.

Values taken from ChEMBL document CHEMBL4033633, “N-(Aroyl)-N-(arylmethyloxy)-α-alanines: Selective inhibitors of aldose reductase” (Bioorg Med Chem, 2017).
